Entries after “also recorded” stand apart in the source; their conditions may differ. Ends that are not written are not given here.
What was measured:
DNA methyltransferase = assay: miR-184 expression by RT-PCR in adult CD4 T-cells treated with 5-aza deoxycytidine; format: cell-based, human; conditions: 10 uM for 24 h
Method: FIG. 29A-B—A.) Schematic of the genomic region surrounding hsa-miR-184. Dots denote CpG sites and a putative CpG island (defined by observed/expected CpG incidence>[…], GC>50%, length>100 bp) located closely upstream. B) Adult CD4 T-cells were cultured with and without the DNA methyltransferase blocker 5-aza deoxycytidine (5-aza) for 24 h, a portion stimulation for 6 h, then assayed for miR-184 expression by RT-PCR.
However, expression of many miRNA species is known to be mediated by epigenetic events such as DNA methylation. […] Indeed we observed a small predicted (obs/exp>0.6, GC>50%) CpG island upstream of the miR-184 genomic site as well as several additional downstream CpG sites (FIG. 29 A). Inhibition of […] gene silencing is accomplished by treating with 5-aza-deoxycytidine, which is incorporated into replicating DNA and blocks DNA methyltransferase enzymes.

CXCR4 = assay: Western blot of CXCR4 in lipid raft membrane fractions, cationic peptides (Nalm-6); format: cell-based, human
Method: (§1) FIG. 18A-B—Priming effect of cationic peptides is dependent on enhanced incorporation of CXCR4 into lipid rafts. (A) Western blot analysis of the localization of CXCR4 in various fractions of cell membranes. Membranes enriched in lipid rafts (fractions 3-5) and depleted of lipid rafts (fractions 9-11). Human pre-B cell line, Nalm-6, was stimulated with […] β2-defensin (hBD-2) (250 ng/ml) or was not stimulated (control). CXCR4 was detected in these membrane fractions by Western blot along with Lyn, a marker of lipid rafts. Experiments were performed three times with similar results. (B) LL-37-induced enhancement of THP-1 cell migration to SDF-1 gradient was inhibited by 1 h pretreatment with MβCD (1.0 or 2.5 mM). * P<0.05 as compared with migration of control cells in the absence of LL-37 (2.5 μg/ml). Lipid raft formation was analyzed. Shown are representative of three independent experiment carried out in triplicate per group. The data shown represent the combine results from four independent experiments carried out in triplicate per group (n=12).
(§2) Since enhanced responsiveness of HSPCs to SDF-1 gradient in the presence of C3a (priming effect) is mediated by incorporation of CXCR4 into membrane lipid rafts, we tested if similar phenomenon is responsible for LL-37 or β2D-dependent priming. […]

[1] = system: murine BMNCs and CFU-GM progenitor cells; assay: Migration of murine BMNCs and CFU-GM progenitors to SDF-1 gradient after cationic peptide priming; format: cell-based; conditions: for migration of CFU-GM progenitor cells in response to SDF-1 gradient / migration of murine BMNCs in response to SDF-1 gradient: SDF-1 50 ng/ml; for chemotactic activity alone: without SDF-1
Method: FIG. 8A-B—A) BM mononuclear cell and B) CFU-GM migration in response to an SDF-1 gradient after priming with LL-37 or hBD-2. Values are fold increases of migrated cells compared to media alone.
FIG. 17A-B—Cationic peptides released from granulocytes enhance responsiveness of HSPCs to SDF-1 gradient. […] Values are the fold increases of migrated cells compared to media alone. M, media alone; SDF-1 (L), 50 ng/ml; SDF-1 (H), 300 ng/ml; C3a, 1 μg/ml. * P<0.05 as compared with SDF-1 (50 ng/ml) alone. The data shown represent the combine results from four independent experiments carried out in triplicate per group (n=12).
We also evaluated the effect of complement fragment 5a (C5a). […] After leaving the BM, granulocytes undergo degranulation in response to plasma C5a and secrete cationic peptides, such as cathelicidin (LL-37) and β-defensin-2 (hBD-2). […] It was hypothesized that this response may be affected by the distribution of membrane lipids by cationic peptides. […] Direct confocal analysis of CXCR4 and lipid raft colocalization in the presence or absence of cationic peptides confirmed these findings.

[2] = system: syngeneic BM mononuclear cells; assay: Murine BM transplant with BM mononuclear cells exposed ex vivo to LL-37; format: in vivo; conditions: BM exposed ex vivo 30 minutes; lethally irradiated recipients
Method: Leukophoresis products enriched in activated granulocytes release hBD-2 and LL-37. The question was whether this might explain why mobilized peripheral blood hematopoietic progenitors engrafts substantially faster relative to marrow. We therefore performed studies in a murine BM transplant model where syngeneic BM mononuclear cells were exposed ex vivo to LL-37 for 30 minutes and subsequently transplanted into lethally irradiated recipients. […] On the basis of these findings, this represents a second strategy for reducing the period of neutropenia in recipients of UCB

THP-1 cell = THP-1 cell migration to SDF-1 gradient with LL-37 and MβCD pretreatment; format: cell-based
Method: as §1, §2

CD34+ cells = assay: Transwell chemotaxis of CD34+ cells to an SDF-1 gradient (priming); format: cell-based, human; conditions: pre-incubated 1 hr with MβCD (2.5 mM); low dose of SDF-1
Method: FIG. 11A-B—Effect of SLP and its components on chemotaxis of CD34^+ cells. Panel A: Chemotaxis of BM CD34^+ cells towards medium alone (control), SDF-1 low (10 ng/mL) alone, SLP (combined SLP from three patients), SDF-1 low+SLP, and SDF-1 high (300 ng/mL). Data are pooled from quadruplicate samples from three independent experiments. *p<0.00001. Panel B: Chemotaxis of UCB CD34^+ cells to medium alone (control), SDF-1 low (10 ng/mL) alone and SDF-1 low (10 ng/mL)+uPAR (1 μg/mL) or +ICAM (1 μg/mL) or +VCAM (1 μg/mL) or +FN (2 μg/mL), or +FG (4 μg/mL) or +C3a (1 μg/mL). Data are pooled from quadruplicate samples from three independent experiments. * p<0.00001.
Chemotaxis of CD34^+ cells to medium alone (control), C3a (1 μg/ml), C3adesArg (1 μg/ml), SDF-1 low (10 ng/mL) alone, and SDF-1 low (10 ng/mL)+C3a low (0.1 μg/ml) or SDF-1 low (10 ng/mL)+C3a (1 μg/ml) or SDF-1 low (10 ng/mL)+C3adesArg (1 μg/ml). Data are pooled from quadruplicate samples from three independent experiments.* p<0.00001.
FIG. 13A-B—Chemotaxis of cells to an SDF-1 gradient is lipid raft-dependent. Panel A: Chemotaxis of CD34^+ cells to medium alone (control), SDF-1 (300 ng/mL) and SDF-1 (300 ng/mL) after preincubation for 1 hr with Amphotericin (10 μg/mL) or Nystatin (50 μg/mL). Cells were collected after chemotaxis from the lower chambers and plated in a clonogenic assay. The number of CFU-GM and BFU-E colonies formed by harvested cells is shown as a percentage of control values. Data are pooled from quadruplicate samples from three independent experiments. *p<0.0001. Panel B: Chemotaxis of CD34^+ cells towards medium alone (control), SDF-1 low (10 ng/mL) alone, or SDF-1 low with cells exposed to C3a (1 μg/mL). Cells pretreated before chemotaxis for 1 hr with MβCD (2.5 mM) are shown as gray bars. Data are pooled from quadruplicate samples from three independent experiments. * p<0.00001.
HSPCs from the mPB engraft faster compared to HSPCs aspirated from BM. To test the hypothesis that mPB-derived HSPCs are primed in their responses to SDF-1 by molecules present in SLP, we pooled together SLP from three patients and exposed BM or UCB CD34^+ cells to the SLP during chemotaxis to a low (10 ng/mL) dose of SDF-1.
To address this issue further, the formation of rafts in the cells was perturbed by MβCD, which depletes cholesterol from the cell membrane. The CD34^+ cells were pre-incubated with MβCD for 1 hr. Chemotaxis to a low dose of SDF-1 in the presence of C3a (in the upper chambers) was evaluated.

**Q.** What does the source list for `Nc1ncn([C@H]2C[C@H](O)[C@@H](CO)O2)c(=O)n1` [5-aza deoxycytidine, 5-aza-deoxycytidine]?
**A.** miR-184 expression (DNA methyltransferase): significant increase; miR-184 expression increase when cells were stimulated in vitro (DNA methyltransferase; stimulation 6 h): abrogated

**Q.** What does the source list for “hBD-2: β-defensin-2; recombinant cationic peptide released from granulocytes (GIGDPVTCLKSGAICHPVFCPRRYKQIGTCGLPGTKCCKKP; ends and bridges not checked; cysteine pairing not given here; UniProt O15263 24-64, looked up)”?
**A.** incorporation of CXCR4 into membrane lipid rafts (CXCR4): increase incorporation of CXCR4; priming effect compared with that described for C3a [1]: several times higher; responsiveness of hematopoietic progenitors to plasma SDF-1 (priming effect) [1]: highly enhanced; migration of CFU-GM progenitor cells in response to SDF-1 gradient [1]: strongly enhanced; migration of murine BMNCs in response to SDF-1 gradient [1]: strongly enhanced; migration of CFU-GM progenitor cells in response to SDF-1 gradient ([1]; listed as β2D): enhance/prime migration; migration of murine BMNCs in response to SDF-1 gradient ([1]; listed as β2D): enhance/prime migration; chemotactic activity alone [1]: do not show chemotactic activity

**Q.** Which results are given for “LL-37: active fragment of cathelicidin; recombinant cationic peptide released from granulocytes (LLGDFFRKSKEKIGKEFKRIVQRIKDFLRNLVPRTES; Antibacterial peptide LL-37; UniProt P49913 134-170, looked up)”?
**A.** incorporation of CXCR4 into membrane lipid rafts (CXCR4): increase incorporation of CXCR4; accelerated recovery of platelets and neutrophils compared to unprimed control cells [2]: 3 to 5 days; priming effect compared with that described for C3a [1]: several times higher; responsiveness of hematopoietic progenitors to plasma SDF-1 (priming effect) [1]: highly enhanced; migration of CFU-GM progenitor cells in response to SDF-1 gradient [1]: enhance/prime migration; also recorded: strongly enhanced; migration of murine BMNCs in response to SDF-1 gradient [1]: enhance/prime migration; also recorded: strongly enhanced; chemotactic activity alone [1]: do not show chemotactic activity

**Q.** “methyl-β-cyclodextrin [MβCD, reference compound]” was tested. Which “LL-37-enhanced migration/responsiveness to SDF-1 gradient” value (THP-1 cell; 1 h pretreatment with MβCD (1.0 or 2.5 mM), LL-37 2.5 μg/ml) did it give?
**A.** inhibited

**Q.** What about the fMLP mediated migration (THP-1 cell; control experiments, MβCD pretreatment) of the same molecule?
**A.** did not affect

**Q.** What about the “effect on the priming effects of LL-37 and hBD-2” value ([1]; inhibitor of cell membrane raft formation) of the same molecule?
**A.** inhibit the priming effects

**Q.** What about the “inhibition of the priming effect of C3a” value (CD34+ cells) of the same molecule?
**A.** ~60%

Reference: patent US9233127B2, “Compositions and methods for CXCR4 signaling and umbilical cord blood stem cell engraftment” (University of Virginia Patent Foundation, priority 2012, dated 2016)
